Biological target: T1, Membrane-bound ghrelin O-acyltransferase MBOAT4 (Homo sapiens) (UniProt Q96T53)
T1 sequence (whole entry): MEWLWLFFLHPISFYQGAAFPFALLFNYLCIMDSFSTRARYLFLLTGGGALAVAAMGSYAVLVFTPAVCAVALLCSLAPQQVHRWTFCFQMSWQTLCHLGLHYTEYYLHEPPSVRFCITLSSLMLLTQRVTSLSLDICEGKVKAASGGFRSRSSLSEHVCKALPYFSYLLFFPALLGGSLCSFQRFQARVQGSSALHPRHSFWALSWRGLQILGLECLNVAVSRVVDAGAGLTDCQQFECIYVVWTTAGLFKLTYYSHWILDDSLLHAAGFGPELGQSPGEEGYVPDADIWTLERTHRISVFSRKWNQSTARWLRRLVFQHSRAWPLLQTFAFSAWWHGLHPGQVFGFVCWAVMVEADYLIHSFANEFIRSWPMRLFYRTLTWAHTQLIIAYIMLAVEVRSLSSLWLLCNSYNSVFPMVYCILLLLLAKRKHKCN
Experiment: Inhibition of human GOAT expressed in baculovirus infected Sf9 cells at 10 uM using octanoyl-CoA and ghrelin-biotin as substrate preincubated for 20 mins followed by substrate addition and measured after = > 1 hr by HTRF assay relative to control
Conditions: time hrs >=1

Structure (SMILES)	inhibition [%]
O=C(Cc1csc2cc(OCc3ccc(Cl)cc3Cl)ccc12)NC(CO)C(=O)O (stereo not given)	97
COC(=O)Cc1csc2cc(OCc3cc(C)nn3C)cc(Cl)c12	97.4
O=C(O)CC1CSc2cc(OCc3ccc(Cl)cc3Cl)ccc21 (stereo not given)	99
CCOC(=O)Cc1csc2cc(OCc3ccc(C)nc3C)ccc12	92.8
CC(=O)NCC[C@@H]1COc2cc(OCc3ccc(Cl)cc3Cl)ccc21	69
Cc1cc(OCc2ccc(Cl)cc2Cl)c(C)c2c1C(CC(=O)O)CO2 (stereo not given)	96.2
O=C(O)Cc1csc2cc([S+]([O-])Cc3ccc(Cl)cc3Cl)ccc12 (stereo not given)	67
COC(=O)Cc1csc2cc(OCc3cc(C(F)(F)F)nn3C)cc(F)c12	99.9
Cc1nc(C(F)(F)F)ccc1COc1cc(Cl)c2c(CC(=O)O)csc2c1	101
Cc1cc(COc2cc(Cl)c3c(CC(=O)O)csc3c2)n(C)n1	105
Cn1nc(C(F)(F)F)cc1COc1cc(C(F)(F)F)c2c(CC(=O)O)csc2c1	103
O=C(O)Cc1coc2c(Cl)c(OCc3ccc(Cl)cc3Cl)ccc12	100
O=C(O)CC1CS(=O)(=O)c2cc(OCc3ccc(Cl)cc3Cl)ccc21 (stereo not given)	79
Cc1ccc(CCc2ccc3c(CC(=O)O)csc3c2)c(C)n1	97.3
CCOC(=O)CNC(=O)Cc1csc2cc(OCc3ccc(Cl)cc3Cl)ccc12	56
Cc1cc(COc2cc(C)c3c(CC(=O)O)csc3c2)n(C)n1	95.6
Cc1cc(OCc2cc(C(F)(F)F)nn2C)cc2scc(CC(=O)O)c12	104
Cc1nc(C(F)(F)F)ccc1COc1cc(Cl)c2c(CC(=O)O)csc2c1Cl	106
COCC1(C(=O)O)COc2cc(OCc3ccc(Cl)cc3Cl)ccc21 (stereo not given)	85
O=C(O)CNC(=O)Cc1csc2cc(OCc3ccc(Cl)cc3Cl)ccc12	95
Cc1nc(C(F)(F)F)ccc1COc1cc(Cl)c2c(CC(=O)O)c(C)sc2c1	103
Cn1nc(C(F)(F)F)cc1COc1cc(Cl)c2c(CC(=O)O)csc2c1	105
COC(=O)Cc1csc2cc(OCc3ccc(C(F)(F)F)nc3C)cc(C)c12	93.8
COC(=O)Cc1csc2cc(OCc3ccc(Cl)cc3Cl)cc(C)c12	84.4
Cc1nc(C(F)(F)F)ccc1COc1cc(F)c2c(CC(=O)O)csc2c1	102

Structure (SMILES)	inhibition [%]
Cc1cc(OCc2cc(C(F)(F)F)nn2C)c(F)c2scc(CC(=O)O)c12	104
COC(=O)Cc1csc2c(F)c(OCc3cc(C(F)(F)F)nn3C)cc(C)c12	96.1
COC(=O)C(CO)NC(=O)Cc1csc2cc(OCc3ccc(Cl)cc3Cl)ccc12 (stereo not given)	86
Cn1nc(C(F)(F)F)cc1COc1ccc2c(CC(=O)O)csc2c1	98.2
Cc1ccc(COc2cc(C)c3c(CC(=O)O)coc3c2C)c(C)n1	102
COC(=O)Cc1c(C)sc2cc(OCc3cc(C(F)(F)F)nn3C)cc(Cl)c12	99.5
COC(=O)Cc1csc2cc(OCc3ccc(C(F)(F)F)nc3C)cc(F)c12	94.9
COC(=O)Cc1csc2c(F)c(OCc3ccc(C(F)(F)F)nc3C)cc(C)c12	94
COC(=O)Cc1coc2c(C)c(OCc3ccc(C)nc3C)cc(C)c12	92.7
COC(=O)Cc1c(C)sc2cc(OCc3ccc(C(F)(F)F)nc3C)cc(Cl)c12	51.5
O=C(O)Cc1csc2cc(S(=O)(=O)Cc3ccc(Cl)cc3Cl)ccc12	83
COC(=O)Cc1csc2c(Cl)c(OCc3cc(C(F)(F)F)nn3C)cc(Cl)c12	92.7
Cc1ccc(COc2cc(C)c3c(c2C)OCC3CC(=O)O)c(C)n1 (stereo not given)	94.8
COC(=O)Cc1csc2cc(OCc3ccc(C(F)(F)F)nc3C)cc(Cl)c12	91.6
Cn1nc(C(F)(F)F)cc1COc1cc(F)c2c(CC(=O)O)csc2c1	104
Cc1ccc(COc2ccc3c(CC(=O)O)csc3c2)c(C)n1	99
COC(=O)Cc1csc2c(F)c(OCc3ccc(C(F)(F)F)nc3C)cc(Cl)c12	88.6
Cc1c(OCc2ccc(Cl)cc2Cl)cc(C)c2c(CC(=O)O)coc12	103
CCC(=O)NCC[C@@H]1COc2cc(OCc3ccc(Cl)cc3Cl)ccc21	59
COC(=O)Cc1csc2c(F)c(OCc3cc(C(F)(F)F)nn3C)cc(Cl)c12	98.9
Cc1nc(C(F)(F)F)ncc1COc1cc(C)c2c(CC(=O)O)csc2c1	100
COC(=O)Cc1coc2c(C)c(OCc3ccc(Cl)cc3Cl)cc(C)c12	68.7
Cc1ccc(COc2cc(C(F)(F)F)c3c(CC(=O)O)csc3c2)c(C)n1	103
COC(=O)Cc1csc2cc(OCc3cc(C(F)(F)F)nn3C)cc(C)c12	95.2
Cc1ccc(COc2cc(Cl)c3c(CC(=O)O)csc3c2)c(C)n1	107

Structure (SMILES)	inhibition [%]
Cc1nc(C(F)(F)F)ccc1COc1cc(C)c2c(CC(=O)O)csc2c1	99.2
COC(=O)Cc1csc2cc(OCc3cc(C)nn3C)cc(C)c12	94.7
COC(=O)Cc1csc2c(C)c(OCc3ccc(C(F)(F)F)nc3C)cc(C)c12	62.8
Cc1ccc(/C=C/c2ccc3c(CC(=O)O)csc3c2)c(C)n1	83.1
Cn1nc(C(F)(F)F)cc1COc1cc(Cl)c2c(CC(=O)O)csc2c1Cl	105
CCS(=O)(=O)NC(=O)Cc1csc2cc(OCc3ccc(Cl)cc3Cl)ccc12	83.2
O=C(O)C[C@H]1COc2cc(OCc3ccc(Cl)cc3Cl)ccc21	86
COC(=O)Cc1csc2c(Cl)c(OCc3ccc(C(F)(F)F)nc3C)cc(Cl)c12	88.1
Cn1nc(C(F)(F)F)cc1COc1cc(Cl)c2c(CC(=O)O)csc2c1F	107
CCOC(=O)Cc1csc2cc(OCc3ccc(Cl)cc3Cl)ccc12	69
CC(=O)NCCc1coc2cc(OCc3ccc(Cl)cc3Cl)ccc12	73
Cc1sc2cc(OCc3cc(C(F)(F)F)nn3C)cc(Cl)c2c1CC(=O)O	106
Cc1nc(C(F)(F)F)ccc1COc1ccc2c(CC(=O)O)csc2c1	93.1
COC(=O)Cc1csc2cc(OCc3cc(C(F)(F)F)nn3C)cc(Cl)c12	100
Cc1nc(C(F)(F)F)ccc1COc1cc(Cl)c2c(CC(=O)O)csc2c1F	106
Cc1nc(C(F)(F)F)ccc1COc1cc(C)c2c(CC(=O)O)csc2c1C	105
CCOC(=O)Cc1csc2cc(OCc3cc(C(F)(F)F)nn3C)ccc12	88.9
Cc1cc(OCc2ccc(Cl)cc2Cl)cc2scc(CC(=O)O)c12	103
O=C(O)Cc1csc2cc(SCc3ccc(Cl)cc3Cl)ccc12	99.3
COC(=O)Cc1csc2cc(OCc3ccc(C)nc3C)cc(Cl)c12	96.5
O=C(O)Cc1csc2cc(OCc3ccc(Cl)cc3Cl)ccc12	99.2
O=C(O)C1(CO)COc2cc(OCc3ccc(Cl)cc3Cl)ccc21 (stereo not given)	81
Cc1nc(C(F)(F)F)ncc1COc1ccc2c(CC(=O)O)csc2c1	97.3
O=C(O)C[C@@H]1COc2cc(OCc3ccc(Cl)cc3Cl)ccc21	93
Cc1nc(C(F)(F)F)ccc1COc1cc(C)c2c(CC(=O)O)csc2c1F	106

Reference: ChEMBL document CHEMBL5053468, “Aromatic ring compound as ghrelin o-acyltransferase inhibitor” (2017)
